Source: PMC9098178, “SAR of Novel 3-Arylisoquinolinones: meta-Substitution on the Aryl Ring Dramatically Enhances Antiproliferative Activity through Binding to Microtubules” (Journal of Medicinal Chemistry, 2022)
Like-named read-outs stand apart in the source and are kept apart here.

Legend:
SNU423 = test: SRB antiproliferative assay, SNU423; format: cell-based, human; conditions: Homo sapiens
Description: (§1) In light of this substantial change in activity between the meta and para compounds, a more comprehensive analysis of the antiproliferative activity was performed for the meta-/para-3-arylisoquinolinone pairs 2 and 3, 4, and 5, as well as 6. A panel of breast (MDA-MB-231), liver (HepG2, SNU423), lung (A549), and colon (HCT116) cancer cell lines were treated with the five 3-arylisoquinolinone analogs for 96 h followed by the SRB assay. The dose–response curves (including those for MCF-7) are presented in Figure S22, and their relevant IC50 values are listed in Table 1. […] The differential activity between meta- and para-3-arylisoquinolinones was reproduced in the National Cancer Institute (NCI) one-dose screen using a panel of 59 cancer cell lines (Figure S23).
All cell lines used in the study were human-derived and purchased from ATCC (Manassas, USA). Breast adenocarcinoma MCF-7 and MDA-MB-231 cell lines were cultured in DMEM. Hepatocellular carcinoma HepG2 and SNU423 cell lines were grown in MEME combined with 1% (v/v) nonessential amino acids and RPMI supplemented with 2 mM glutamine, respectively. Lung adenocarcinoma A549 and colorectal carcinoma HCT116 cells were grown in RPMI (+2 mM glutamine). All previous media were further supplemented with 10% heat-inactivated fetal bovine serum. The immortalized, normal liver THLE-3 cells were grown in BEGM (Lonza, Cat# CC-3170) onto precoated vessels according to ATCC’s instructions. Human umbilical vein endothelial cells (HUVECs) were cultured in EGM-2 (Lonza, Cat# CC-3162). All of the cells were maintained at 37 °C and 5% CO2 in a humidified incubator.
Screening of the antiproliferative activity of 3-arylisoquinolinones was performed using the SRB assay as previously described.[56] Exponentially growing HepG2, SNU423, MDA-MB-231, MCF-7, A549, HCT116, THLE-3, and HUVECs were seeded in 96-well plates at densities of 3000, 2000, 1500, 2500, 1000, 1000, 4000, and 4000 cells/well, respectively. These densities were experimentally selected so that the DMSO-treated cells (control) were approximately 80–90% confluent at the assay’s endpoint, and their optical density (OD) values fell within the assay’s linear range. […] After treatment, cell monolayers were fixed with 10% (w/v) trichloroacetic acid for 1 h at 4 °C, washed, and dried. Then, the cells were exposed to 0.4% (w/v) SRB dye (prepared in 1% (v/v) acetic acid; Botium, Cat# 80100) for 15 min followed by several 1% acetic acid washing and then drying. Finally, the cellular protein-bound SRB was thoroughly dissolved in 10 mM Tris base, and the OD values were read at 510 nm using a plate reader (μQuant Microplate Spectrophotometer, Biotek, U.K.) coupled with Gen5 software (BioTek, U.K.). Compound-induced changes in cell growth were inferred from changes in OD values. Cell growth was calculated using the following formula: cell growth (%) = (ODtest/ODcontrol) × 100.

HepG2 cells = test: Clonogenic assay; format: cell-based, human; conditions: 14 days
Description: HepG2 cells were treated with varying concentrations of 2–6 added once and kept for 14 days before counting colonies and calculating surviving fraction (Figure 2).
The ability of potential anticancer agents to prevent unlimited cell division and induce reproductive cell death was assessed using clonogenic assay as previously described.[57] In brief, HepG2 cells were seeded into six-well plates at a density of 1000 single cells/well and incubated for 10–12 h to adhere. The cells were then treated with DMSO (control) or a range of concentrations of 2–6 for 14 days. Afterward, the produced colonies were washed with phosphate-buffered saline (PBS), fixed with 70% ethanol for 20 min, and stained with 0.5% (w/v) methylene blue (prepared in 70% methanol). Following washing with water and drying, colonies (≥50 cells) were manually counted. The colony-forming efficiency (CFE) of cells was calculated by dividing the number of colonies formed by the number of cells seeded for each condition. The surviving fraction was determined by dividing the CFE of the treated cells by CFE of the control cells. A survival curve was generated by plotting the log of drug concentrations versus surviving fraction.

HUVECs [1] = test: Endothelial tube disruption assay; format: cell-based, human; conditions: 16 h treatment after 4 h tube formation; concentration-dependent, more pronounced at 1 and 2 μM of 4
Description: (§2) Moreover, networks of HUVEC-based tubes were exposed for 16 h to different concentrations of 4 and 5 to assess their potential tube disruptive effects (Figure 8B). […] The disruption was more pronounced at 1 and 2 μM of 4, as evidenced by a decrease in tube junctions and formation of short distorted tubes.
(§3) Matrigel (Corning, Cat# 356237) was gently added into 96-well plates at a volume of 70 μL/well and allowed to gel at 37 °C for 30 min. A mixture of HUVECs (25 × 10^3) and DMSO, 4 (0.5, 1, 2 μM), or 5 (25 μM) was then dispensed over the gels and incubated for 16 h. Next, the wells were filled with PBS and covered with a coverslip to diminish the meniscus effect, allowing proper examination of the endothelial tube networks under a light microscope (Optika XDS-3, Italy). Bright-field images of 4x magnification were captured and then processed using Fiji ImageJ software. For the assessment of endothelial tube disruption, HUVECs at a density of 25 × 10^3 cells/well were seeded onto Matrigel and incubated for 4 h to align into tubes. The cells were then treated with DMSO, 4, or 5 for 16 h prior to the microscopic examination as mentioned above.

HUVECs [2] = test: Endothelial cell tube formation assay; format: cell-based, human; conditions: 16 h, Matrigel
Description: as §2, §3

[3] = system: panel of 59 cancer cell lines; test: NCI one-dose screen; format: cell-based; conditions: 10 µM, 48 h, SRB
Description: as §1
Figure S23. NCI One-Dose Mean graphs for 3-arylisoquinolinones 4, 5 […]
In NCI one-dose screen, the 59 cell lines (classified into 9 groups) were exposed to 4, 5 and 7 at a single dose of 10 µM for 48 h followed by SRB assay. The one-dose data were reported as a mean graph of the growth percentage of treated cells, as relative to the cell number of both the no-drug control and the zero time (before adding the test agent). Values between 0 and 100 indicate growth inhibition, whereas values less than 0 indicate lethality. For instance, a value of 40 means 60% growth inhibition; 0, no growth throughout the experiment; -40, 40% lethality; and - 100, all cells are dead.1
A) One-dose mean graph for 3-arylisoquinolinone 4 (NSC number 795055)

[4] = SNU-423, 96 h treatment, mean ± SEM, read-out: IC50 SNU423

Structure (SMILES)	IC50 (SNU423; [4])	surviving fraction (HepG2 cells; concentrations as high as 20 μM)	disruption of preestablished capillary-like tubes (HUVECs [1])	effect on capillary-like tube formation (HUVECs [2]; 25 μM)	inhibition of growth in NCI one-dose screen [3]	IC50 (SNU423; SNU-423, 24 h +drug/72 h –drug treatment, read-out: mean IC50 ± SEM, SNU423)	colony formation (HepG2 cells; 0.5 or 1 μM)	effect on capillary-like tube formation (HUVECs [2]; 2 μM)
O=c1[nH]c(-c2ccc(F)cc2)cc2cc(F)ccc12 [compound 5, 6-Fluoro-3-(4-fluorophenyl)isoquinolin-1(2H)-one]	> 50 µM	0.5	not observed	did not significantly affect the process of tube formation	less active			
O=c1[nH]c(-c2cccc(F)c2)cc2cc(F)ccc12 [compound 4, 6-Fluoro-3-(3-fluorophenyl)isoquinolin-1(2H)-one]	0.25 ± 0.03 µM		able to disrupt the preestablished capillary-like tubes		far more potent in the inhibition of growth of many of the cell lines	0.36 ± 0.01 µM	No colonies were apparent	markedly suppressed tube formation
